pEC50: −log10 of the molar value.

This assay relates to HCV1b replication (bicistronic genotype 1b replicon in Huh 7 cells). The assay is described as follows: HCV replicon assay, 1b_Huh-Luc/Neo-ET cell line, luciferase readout. The settings on record: Hepatitis C virus, Group 1 / Group 2, read-out: EC50, concentration effective to produce a half-maximal inhibition of HCV1b replication. The assay is classed as cell-based, HCV genotype 1b. The method, then: Biological activity of the compounds of the invention was determined using an HCV replicon assay. The 1b_Huh-Luc/Neo-ET cell line persistently expressing a bicistronic genotype 1b replicon in Huh 7 cells was obtained from ReBLikon GMBH. This cell line was used to test compound inhibition using luciferase enzyme activity readout as a measurement of compound inhibition of replicon levels.
On Day 1 (the day after plating), each compound is added in triplicate to the cells. Plates incubated for 72 […] prior to running the luciferase assay. Enzyme activity was measured using a Bright-Glo Kit (cat. number E2620) manufactured by Promega Corporation. The following equation was used to generate a percent control value for each compound. % Control=(Average Compound Value/Average Control)*100
The EC50 value was determined using GraphPad Prism and the following equation: Y=Bottom+(Top−Bottom)/(1+10^((Log IC50−X)*HillSlope))
EC50 values of compounds are repeated several times in the replicon assay.
In general terms: In antiviral work, replicon cells carry a viral genome segment that copies itself.

For the molecule `CNC(=O)c1c(-c2ccc(F)cc2)oc2cc3c(cc12)C(C)OCCN3S(C)(=O)=O` (centres unmarked) [Compound B22], the pEC50 is 7.00 to 8.00.

As to `CNC(=O)c1c(-c2ccc(F)cc2)oc2cc3c(cc12)[C@H](C)OCCN3S(C)(=O)=O` [Compound B45], the pEC50 is at least 8.00.

Consider `CNC(=O)c1c(-c2ccc(Oc3ccc(F)cc3)cc2)oc2cc3c(cc12)C(C)OC(CS(C)(=O)=O)CN3S(C)(=O)=O` (centres unmarked) [Compound B192], for which the pEC50 was at least 8.00.

Consider `CNC(=O)c1c(-c2ccc(F)cc2)oc2cc3c(cc12)[C@@H](C)O[C@H](CS(C)(=O)=O)CN3S(C)(=O)=O` [Compound B215], for which the pEC50 was 7.00 to 8.00.

Take `CNC(=O)c1c(-c2ccc(Oc3ccc(F)cc3)cc2)oc2cc3c(cc12)[C@@H](C)O[C@H](CS(C)(=O)=O)CN3S(C)(=O)=O` [Compound B216]: the pEC50 was 7.00 to 8.00.
